{
  "source": "patent US8022036B2",
  "about": "“Use of thymosin alpha 1 for the treatment of immunological diseases” (Sigma-Tau Industrie Farmaceutiche Riunite S.p.A., priority 2006, dated 2011)",
  "key": {"[1]": {"tested_on": "TLN CD4+ T lymphocytes, neutrophils", "experiment": "Proliferation of TLN cells and suppressive activity of CD4+CD25+ T reg cells from DC-treated HSCT mice", "format": "in vivo, mouse", "method": "(§1) IDO expression and functional activity were assessed as described in Nat. Immunol. 2002; 3:1097-1101. Generation, purification and activity of T reg cells Splenic CD4+ T-cells were cocultured with conidia-pulsed DCs for 5 days […] before flow cytometry or ELISPOT assay. 1-MT (Sigma-Aldrich) was used at 2 μM. CD4+CD25+ and CD4+CD25− cells (>90% pure on FACS analysis) were separated by magnetic cell sorting from lung and TLN (J. Immunol. 2006; 176:1712-1723). For T reg cell inhibition, 5×10^4 TLN T reg cells were added to 3×10^5 CD4+CD25− cells, both from transplanted mice, stimulated with 3×10^4 autologous Aspergillus conidia-pulsed spDCs or with or 1.5×10^5 allogeneic spDCs from naïve donor mice for five days before H^3-thymidine labeling. Purified peritoneal CD 11b+Gr−1+PMN (>98% pure on FACS analysis) (2×10^6) were exposed to resting conidia in the presence of 4×10^5 CD4+CD25+ for 60 min for oxidant production or 24 hours for cytokine production (J. Immunol. 2006; 176:1712-1723).\n(§2) Mice received twice intraperitoneal injections of DCs, at weekly interval, starting a day after HSCT and infected a week after the last DC administration. Three days later, lung homogenates, CD4+ T cells (>98% on FACS analysis), CD4+CD25− (>98%) or CD4+CD25+ (>82%) purified with the specific Miltenyi Biotec isolation kits were assessed for pattern of pro- and anti-inflammatory (TNF-a/IL-10 in lung homogenates), Th1 (IFN-γ) or Th2 (IL-4) cytokine production by CD4+ cells stimulated with Aspergillus-pulsed DCs (Blood. 2003; 102:3807-3814) frequency of CD25+ IL-10^+ TGF-β+ T reg cells, lymphoproliferation and gene expression by RT-PCR. For proliferation, TLN CD4+ T lymphocytes were plated (10^5 cells/well) with 10^5 cells/well irradiated allogeneic splenocytes or autologous spDCs pulsed with conidia or 10 μg/mL Con A for five days before H^3-thymidine labeling.\n(A) Murine CD4+ T lymphocytes from TLN of transplanted mice were stimulated with irradiated allogeneic splenocytes, autologous splenic DCs stimulated with conidia or Concanavalin A. T cell proliferation was assessed in a 5-day MLR assay and measured by H^3thymidine incorporation over the last 8 hours, (*) P<0.05, transplanted versus donor mice. (**) P<0.05, T cell- and/or DC-treated mice versus untreated mice. (***) P<0.05, Thymosin alpha 1-treated DCs versus untreated DCs. […] (D) Peritoneal neutrophils (PMN) were exposed to resting conidia in the presence of lung CD4+CD25+ T cells from FL-DCtreated (a) or Thymosin alpha 1-GM-DC-treated mice (b) for 60 min (for oxidant production, expressed as nanomoles O2-/10^6 cells) or 24 hours for cytokine production (pg/mL by ELISA). […]"}, "[2]": {"tested_on": "lung homogenates, TLN CD4+ T cells", "experiment": "Inflammatory/Th/T reg responses in lung and TLN of infected HSCT mice given DCs (ELISA, ELISPOT, RT-PCR, flow cytometry)", "format": "in vivo, mouse", "method": "as §2\nRNA extraction, synthesis and PCR of cDNA, sequences of gene-specific primers, annealing temperatures and amplification cycles were done as described in J. Immunol. 2006; 176:1712-1723). Amplification efficiencies were validated and normalized against GAPDH.\n(A) TNF-a/IL-10 levels were assessed by specific ELISA in lung homogenates and IFN-γ/IL-4 production were assessed in TLN CD4+ T cells cocultured with Aspergillus-pulsed DCs. Bars indicate standard errors. TLN CD4+CD25+ T cells producing IL-10 or TGF-β were numbered by ELISPOT assay. Results are expressed as the mean number of cytokine-producing cells (±SE) per 2×10^5 cells. *P<0.05, DC-treated versus untreated mice. (**) P<0.05, Thymosin alpha 1-treated DCs versus untreated DCs.\n(B) Total RNA was extracted from freshly purified CD4+ T cells from TLN of treated or untreated (None) mice. The expressions of the different mRNAs in each cell population were determined by RT-PCR. The expression of a housekeeping gene, Gapdh mRNA, was used as an internal control. The data shown are representative results of three experiments.\n(C) Phenotypic analysis of cells isolated from lung or TLN of mice infused or not (None) with different types of DCs, (−) indicating uninfected, untreated mice. CD4+ T cells were sequentially reacted with PE-conjugated anti-CD25 (PC61) and FITC-conjugated anti-CD69 (clone H1.2F3) mAbs. Numbers represent the percentage of positive cells over total cells analyzed. Control staining of cells with irrelevant Ab was used to obtain background fluorescence values. Histograms are representative of one out of four independent experiments."}, "splenic CD4+ T cells": {"tested_on": "splenic CD4+ T cells", "experiment": "Th1/T reg priming in vitro of splenic CD4+ T cells by Aspergillus-pulsed DCs (ELISPOT, flow cytometry)", "format": "cell-based, mouse", "method": "as §1\nCytokine content was assessed by enzyme-linked immunosorbent assays (Endogen Human Elisa Kits, R&D Systems and Euroclone, Milan, Italy). AID EliSpot assay kits (Amplimedical, Buttigliera Alta, Turin, Italy) were used on purified splenic CD4+ Tcells cocultured with conidia-pulsed DCs for 5 days to enumerate cytokine-producing cells (Blood. 2003; 102:3807-3814). 1-MT was used at 2 μM.\n(A) Frequency of IFN-γ-/IL-10-producing splenic CD4+ T cells activated by Aspergillus-pulsed Thymosin alpha 1-treated GM-DCs or FL-DCs. 1-MT was present in selected cultures. Plates were read with the AID-EliSpot Reader System (Amplimedical). Values are means±SE per 10^6 cells of samples from 3-5 experiments, calculated using replicates of serial twofold dilutions of cells. (*) P<0.05, conidia-exposed versus unexposed cells; (**) P<0.05, thymosin-exposed versus unexposed cells.\n(B) Phenotypic analysis of CD4+ cells cultured alone (−) or as in (A). Numbers represent the percentage of double positive cells."}, "[3]": {"details": "mice receiving Thymosin alpha 1-treated GM-DCs"}, "[4]": {"details": "mice given Thymosin alpha 1-treated GM-DCs"}},
  "note": "No end group written: not given here.",
  "data": [
    {"substance": "Thymosin alpha 1: naturally occurring thymic peptide; supplied as purified, endotoxin-free sterile lyophilized acetylated polypeptide from SciClone Pharmaceuticals (Ac-SDAAVDTSSEITTKDLKEKKEVVEEAEN; UniProt P06454 2-29, looked up)", "values": [
      {"measurement": "TNF-a and oxidant production of neutrophils in the presence of lung T reg cells", "setting": "[1]; T reg fraction induced by Thymosin alpha 1-treated GM-DCs", "value": "significantly inhibited"},
      {"measurement": "alloreactivity and antigen-specific responses of CD4+CD25- T cells in the presence of CD4+CD25+ T cells", "setting": "[1]; T reg from mice receiving Thymosin alpha 1-treated GM-DCs", "value": "both reduced"},
      {"measurement": "alloreactivity (proliferation of TLN cells to allogeneic splenocytes)", "setting": "[1]; [3]", "value": "decreased"},
      {"measurement": "pathogen-specific reactivity (proliferation to Aspergillus conidia)", "setting": "[1]; [3]", "value": "recovered"},
      {"measurement": "compartmentalization of induced T reg (lungs vs TLN), FL-DCs", "setting": "[2]; Thymosin alpha 1-treated FL-DCs", "value": "the opposite was true"},
      {"measurement": "TNF-a/IL-10 production in lung homogenates", "setting": "[2]; Thymosin alpha 1-treated GM-DCs, compared with TNF-a high, IL-10 low in untreated or GM-DC mice", "value": "the reverse being true"},
      {"measurement": "compartmentalization of induced T reg (lungs vs TLN), GM-DCs", "setting": "[2]; Thymosin alpha 1 treated GM-DCs", "value": "induced T reg in the lungs more than TLN"},
      {"measurement": "CD62L marker on CD25+ T cells", "setting": "[2]; [4]", "value": "stained positive"},
      {"measurement": "Foxp3 mRNA in TLN CD4+ T cells (RT-PCR)", "setting": "[2]; [4]", "value": "expressed"},
      {"measurement": "IFN-γ production by TLN CD4+ T cells", "setting": "[2]; [4]", "value": "higher"},
      {"measurement": "IL-4 production by TLN CD4+ T cells", "setting": "[2]; [4]", "value": "lower"},
      {"measurement": "CD69 activation marker on CD4+CD25+ T cells", "setting": "[2]; mice given Thymosin alpha 1-treated GM-DCs or FL-DCs", "value": "did not stain positive"},
      {"measurement": "priming for IL-10-producing cells by FL-DCs", "setting": "splenic CD4+ T cells; Aspergillus-pulsed FL-DCs, 5 days coculture", "value": "increased priming"},
      {"measurement": "priming for IFN-γ-/IL-10-producing CD4+ T cells by GM-DCs", "setting": "splenic CD4+ T cells; Aspergillus-pulsed GM-DCs, 5 days coculture", "value": "increased priming"},
      {"measurement": "CD4+CD25+ T cells positive for intracellular Foxp3 and surface CTLA-4", "setting": "splenic CD4+ T cells; cultured with Thymosin alpha 1-induced DCs", "value": "a significant proportion of the CD4+CD25+ T cells stained positive for intracellular Foxp3 and surface CTLA-4"}
    ]}
  ]
}
